Assay results: PMC3964607 (Nuclear medicine and biology, 2013)

Experiments:
[1] = rats; cited from earlier work
[2] = Biodistribution in normal rats; format: in vivo, rats (Sprague–Dawley); conditions: mean ± SD; for Percent injected dose in blood: i.v. tail vein
[3] = Biodistribution in rats with renal pedicle ligation; format: in vivo, rats (Sprague–Dawley)
[4] = Sprague-Dawley rats; cited from earlier work
[5] = rats with renal pedicle ligation, 60 min post-injection, mean ± SD, n=5

O=C(O)CNC(=O)c1ccc([18F])cc1 [^18F-PFH, ^18F-p-fluorohippurate]
Route of elimination [1]: rapidly and exclusively cleared by the kidneys

O=C(O)CNC(=O)c1ccccc1[131I] [^131I-OIH, ^131I-o-iodohippurate]
Percent injected dose in blood ([2]; 10 min post-injection, n=7): 5.1 ± 0.5 % ID | Percent injected dose in bowel (intestines and stomach) ([2]; 10 min post-injection, n=7): 1.7 ± 0.5 % ID | Percent injected dose in kidney ([2]; 10 min post-injection, n=7): 5.3 ± 1.2 % ID | Percent injected dose in liver ([2]; 10 min post-injection, n=7): 3.3 ± 0.2 % ID | Percent injected dose in urine ([2]; 10 min post-injection, n=7): 50.8 ± 5.2 % ID | Percent injected dose in blood ([2]; 60 min post-injection, n=5): 0.8 ± 0.1 % ID | Percent injected dose in bowel (intestines and stomach) ([2]; 60 min post-injection, n=5): 1.8 ± 0.3 % ID | Percent injected dose in kidney ([2]; 60 min post-injection, n=5): 0.7 ± 0.4 % ID | Percent injected dose in liver ([2]; 60 min post-injection, n=5): 0.6 ± 0.2 % ID | Percent injected dose in urine ([2]; 60 min post-injection, n=5): 85.4 ± 3.1 % ID | Percent injected dose remaining in the spleen, heart and lung ([3]; rats with ligated renal pedicles, 60 min): less than 1% | Percent injected dose in blood [3, 5]: 15.1 ± 0.9 % ID | Percent injected dose in bowel (intestines and stomach) [3, 5]: 7.6 ± 1.1 % ID | Percent injected dose in kidney [3, 5]: 0.5 ± 0.2 % ID | Percent injected dose in liver [3, 5]: 7.1 ± 0.6 % ID

^125I-iothamalate
Clearance as percentage of the clearance of ^131I-OIH [4]: 40%

N#Cc1cc(C(=O)NCC(=O)O)ccc1[18F] [^18F-CNPFH, ^18F-m-cyano-p-fluorohippurate]
Route of elimination [1]: eliminated by both renal and hepatobiliary pathways
